Measurements from US8278032B2, “Transporter protein in mammal and utilization of the same” (priority 2005, dated 2012).
Read-outs that look alike come from different tables or passages of the source.

Assays:
hMATE1 = target: T1, hMATE1 (Homo sapiens, UniProt Q96FL8); test: Inhibition of RI-labeled TEA uptake in HEK293 cells expressing hMATE1; conditions: for TEA uptake activity percent taking the level with addition of no compound as 100% (% ± S.D.): 50 μM RI-labeled TEA, pH 8.0, HEK293 cells expressing hMATE1; for Inhibition of TEA uptake activity (in words, summary of Table 1): MATE1 expressing HEK293 cells, 50 μM TEA, pH 8.0
T1 sequence (Q96FL8 1-570): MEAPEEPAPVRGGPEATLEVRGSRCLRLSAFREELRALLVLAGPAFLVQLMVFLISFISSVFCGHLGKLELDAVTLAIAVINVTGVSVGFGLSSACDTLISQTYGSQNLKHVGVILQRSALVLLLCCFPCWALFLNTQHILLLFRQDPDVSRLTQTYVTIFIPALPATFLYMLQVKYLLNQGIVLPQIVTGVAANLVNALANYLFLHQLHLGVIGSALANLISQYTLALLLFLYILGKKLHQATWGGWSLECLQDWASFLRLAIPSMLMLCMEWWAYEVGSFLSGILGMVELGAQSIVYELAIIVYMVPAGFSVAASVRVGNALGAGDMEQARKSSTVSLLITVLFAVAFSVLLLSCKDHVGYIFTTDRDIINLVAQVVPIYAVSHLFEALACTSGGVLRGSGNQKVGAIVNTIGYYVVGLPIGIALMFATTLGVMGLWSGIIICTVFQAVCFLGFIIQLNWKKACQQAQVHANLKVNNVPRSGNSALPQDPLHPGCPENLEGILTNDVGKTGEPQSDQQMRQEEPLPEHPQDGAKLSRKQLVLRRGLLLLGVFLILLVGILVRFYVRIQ

mMATE1 = target: T2, mMATE1 (Mus musculus, UniProt Q8K0H1); test: Inhibition of RI-labeled TEA uptake in HEK293 cells expressing mMATE1; type: cell-based; conditions: for remaining activity at 5000 µM: compound 5 mM;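 as to all read-outs here: transfected HEK293 cells held 5 min at 37 °C before tracer addition, uptake read as radioactivity retained on a 0.45-µm membrane filter, mean ± SD of three to nine experiments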
T2 construct: expressed in transfected cells; host or cells: HEK293
T2 sequence (Q8K0H1 with tags, fused parts or gaps): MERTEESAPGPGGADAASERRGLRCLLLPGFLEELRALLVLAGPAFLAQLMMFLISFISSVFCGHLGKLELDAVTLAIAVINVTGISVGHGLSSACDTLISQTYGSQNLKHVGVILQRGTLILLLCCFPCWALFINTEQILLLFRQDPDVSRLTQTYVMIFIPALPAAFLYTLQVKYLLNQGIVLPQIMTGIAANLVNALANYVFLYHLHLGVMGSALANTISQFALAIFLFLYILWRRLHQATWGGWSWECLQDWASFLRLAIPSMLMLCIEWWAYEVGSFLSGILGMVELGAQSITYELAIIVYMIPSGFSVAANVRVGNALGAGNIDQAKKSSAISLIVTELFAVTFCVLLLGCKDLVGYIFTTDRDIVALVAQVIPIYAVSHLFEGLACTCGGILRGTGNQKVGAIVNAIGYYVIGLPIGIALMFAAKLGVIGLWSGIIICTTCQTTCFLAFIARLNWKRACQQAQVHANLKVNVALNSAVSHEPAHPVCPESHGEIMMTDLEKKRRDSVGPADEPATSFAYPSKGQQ

[1] = 50 μM RI-labeled TEA, pH 8.0, HEK293 cells expressing mMATE1, read-out: TEA uptake activity percent taking the level with addition of no compound as 100% (% ± S.D.)
[2] = compound 0.1 mM, 50 μM RI-labeled TEA, pH 8.0, HEK293 cells expressing mMATE1, read-out: TEA uptake activity percent taking the level with addition of no compound as 100% (% ± S.D.)

NC12CC3CC(CC(C3)C1)C2 [Amantadine]
TEA uptake activity percent taking the level with addition of no compound as 100% (% ± S.D.) (hMATE1; compound 0.1 mM): 75.5 ± 9.8%

C[C@]12CCC(=O)C=C1CC[C@@H]1[C@@H]2CC[C@]2(C)C(=O)CC[C@@H]12 [Androstenedione]
TEA uptake activity percent taking the level with addition of no compound as 100% (% ± S.D.) (hMATE1; compound 0.1 mM): 36.6 ± 0.9% | remaining activity at 100 µM (mMATE1; HEK293, pH 8, read-out: TEA uptake activity percent taking the level with addition of no compound as 100% (% ± S.D.)): 8.6 ± 1.7%

CN1[C@@H]2CC[C@H]1C[C@@H](OC(=O)C(CO)c1ccccc1)C2 (some centres unmarked) [Atropine]
TEA uptake activity percent taking the level with addition of no compound as 100% (% ± S.D.) (hMATE1; compound 0.1 mM): 74.6 ± 5.5%

COc1ccc2cc3[n+](cc2c1OC)CCc1cc2c(cc1-3)OCO2 [Berberin]
TEA uptake activity percent taking the level with addition of no compound as 100% (% ± S.D.) (hMATE1; compound 0.001 mM): 69.2 ± 2.1% | TEA uptake activity percent taking the level with addition of no compound as 100% (% ± S.D.) (hMATE1; compound 0.01 mM): 20.4 ± 2.4% | TEA uptake activity percent taking the level with addition of no compound as 100% (% ± S.D.) (hMATE1; compound 0.1 mM): 4.2 ± 0.9%

CC(C)(c1ccc(O)cc1)c1ccc(O)cc1 [Bisphenol A]
TEA uptake activity percent taking the level with addition of no compound as 100% (% ± S.D.) (hMATE1; compound 0.01 mM): 113.9 ± 2.1%

C[N+](C)(C)CC(O)CC(=O)[O-] (centres unmarked) [Carnitine]
TEA uptake activity percent taking the level with addition of no compound as 100% (% ± S.D.) (hMATE1; compound 5 mM): 104.2 ± 6.4% | remaining activity at 5000 µM (mMATE1; [1]): 71.2 ± 6.1%

CN(C)CCCN1c2ccccc2Sc2ccc(Cl)cc21 [Chlorpromazine]
TEA uptake activity percent taking the level with addition of no compound as 100% (% ± S.D.) (hMATE1; compound 0.1 mM): 12.2 ± 3.6%

C[N+](C)(C)CCO [Choline]
TEA uptake activity percent taking the level with addition of no compound as 100% (% ± S.D.) (hMATE1; compound 5 mM): 62.7 ± 4.1% | remaining activity at 5000 µM (mMATE1; [1]): 62 ± 8.8%

CN/C(=N/CCSCc1nc[nH]c1C)NC#N [Cimetidine]
Inhibition of TEA uptake activity (in words, summary of Table 1) (hMATE1): strongly inhibited | TEA uptake activity percent taking the level with addition of no compound as 100% (% ± S.D.) (hMATE1; compound 0.01 mM): 44.7 ± 7.4% | TEA uptake activity percent taking the level with addition of no compound as 100% (% ± S.D.) (hMATE1; compound 0.1 mM): 9.7 ± 8.7% | remaining activity at 10 µM (mMATE1; compound 0.01 mM, 50 μM RI-labeled TEA, pH 8.0, HEK293 cells expressing mMATE1, read-out: TEA uptake activity percent taking the level with addition of no compound as 100% (% ± S.D.)): 29.3 ± 5.2% | remaining activity at 100 µM (mMATE1; [2]): 3.1 ± 5.1%

N.N.[Cl][Pt][Cl] [Cisplatin]
TEA uptake activity percent taking the level with addition of no compound as 100% (% ± S.D.) (hMATE1; compound 1 mM): 35.6 ± 6.0%

C[C@]12C[C@H](O)[C@H]3[C@@H](CCC4=CC(=O)CC[C@@]43C)[C@@H]1CC[C@@H]2C(=O)CO [Corticosterone]
Inhibition of TEA uptake activity (in words, summary of Table 1) (hMATE1): inhibited | TEA uptake activity percent taking the level with addition of no compound as 100% (% ± S.D.) (hMATE1; compound 0.1 mM): 10.0 ± 6.7% | remaining activity at 100 µM (mMATE1; [2]): 50 ± 2.5%

CC/C(=C(/CC)c1ccc(O)cc1)c1ccc(O)cc1 [Diethylstilbestrol]
TEA uptake activity percent taking the level with addition of no compound as 100% (% ± S.D.) (hMATE1; compound 0.1 mM): 94.9 ± 7.8%

C[C@H]1O[C@@H](O[C@H]2[C@@H](O)C[C@H](O[C@H]3[C@@H](O)C[C@H](O[C@H]4CC[C@@]5(C)[C@H](CC[C@@H]6[C@@H]5C[C@@H](O)[C@]5(C)[C@@H](C7=CC(=O)OC7)CC[C@]65O)C4)O[C@@H]3C)O[C@@H]2C)C[C@H](O)[C@@H]1O [Digoxin]
TEA uptake activity percent taking the level with addition of no compound as 100% (% ± S.D.) (hMATE1; compound 0.001 mM): 102.5 ± 7.3%

O=C(CCCN1CC=C(n2c(=O)[nH]c3ccccc32)CC1)c1ccc(F)cc1 [Droperidol]
TEA uptake activity percent taking the level with addition of no compound as 100% (% ± S.D.) (hMATE1; compound 0.001 mM): 74.1 ± 14.7%

CN(C)C(=N)N=C(N)N [Metformin]
TEA uptake activity percent taking the level with addition of no compound as 100% (% ± S.D.) (hMATE1; compound 0.1 mM): 120.5 ± 9.4%

C[C@@H]1O[C@@H](O[C@H]2C[C@@H](O)[C@]3(CO)[C@H]4[C@H](O)C[C@]5(C)[C@@H](C6=CC(=O)OC6)CC[C@]5(O)[C@@H]4CC[C@]3(O)C2)[C@H](O)[C@H](O)[C@H]1O [Ouabain]
TEA uptake activity percent taking the level with addition of no compound as 100% (% ± S.D.) (hMATE1; compound 0.01 mM): 115.9 ± 6.6%

COc1ccc(Cc2nccc3cc(OC)c(OC)cc23)cc1OC [Papaverine]
TEA uptake activity percent taking the level with addition of no compound as 100% (% ± S.D.) (hMATE1; compound 0.01 mM): 26.8 ± 2.7%

C[n+]1ccc(-c2cc[n+](C)cc2)cc1 [Paraquat]
TEA uptake activity percent taking the level with addition of no compound as 100% (% ± S.D.) (hMATE1; compound 1 mM): 57.2 ± 6.8%
